Source: patent US9943500B2, “Methods of treating topical microbial infections” (LUODA PHARMA PTY LIMITED, priority 2013, dated 2018)
≈ marks a conversion by molar mass, not a printed value. Read-outs that look alike come from different tables or passages of the source.

Legend:
[1] = dogs; cited from earlier work
[2] = system: 51 Australian bovine mastitis isolates, primarily S. aureus, S. agalactiae and S. uberis; experiment: Minimum inhibitory concentration assay, bovine mastitis isolates (Example 3); format: cell-based; settings: all 51 isolates
From the text: Fifty-one dairy bovine mastitis isolates, encompassing a variety of bacterial species, were isolated from milk samples collected from dairy farms in rural South Australia by the University of Adelaide Ambulatory Clinic. Cellular morphology observed from Gram stains and catalase testing was used to differentiate Staphylococcus, Streptococcus and Corynebacterium species from Gram-negative species. Further biochemical testing including coagulase, Lancefield grouping, esculin hydrolysis and CAMP tests were used to identify the isolates to species level. Where biochemical test results were not definitive in identifying species, amplification and sequencing of the 16S ribosomal RNA gene was used to confirm the identity of the isolates.
Minimum inhibitory concentration tests were performed in the manner outlined by the CLSI (CLSI 2012). Test compounds were dispensed into a 96-well microtitre tray containing 90 μl of CAMHB in 90 μl volumes and serial diluted to obtain a concentration gradient ranging from 128 μg/ml to 0.25 μg/ml (see FIG. 24). For Streptococcus species, CAMHB was replaced with a CAMHB supplement with 4% lysed-sheep blood (4% LSB:CAMHB). 4% LSB:CAMHB was prepared by mixing 5 ml sheep blood to 5 ml milliQ water, and repeated freezing at −20° C. and thawing, followed by centrifuged for 20 min at 7000 rpm. 7 ml of the supernatant was removed and added to 93 mL of CAMB.
Bacterial suspensions were prepared by emulsifying fresh colonies obtained from an overnight culture on Sheep Blood Agar (SBA) in 4 mls of 9.1 g/l physiological saline to an optical density read at 600 nm (OD600 nm) between 1.00 and 1.20. Standardised bacterial suspensions were diluted 1:10 in physiological saline and dispensed into all wells, excluding the negative control wells, in 10 μL volumes giving a final concentration of between 4×10^5 and 5×10^5 CFU/mL in each well. 96-well microtitre trays were incubated for 24 hours at 37° C. in 5% CO2 and then assessed both visually and using OD readings from a microplate reader at a wavelength of 600 nm. These tests were performed in duplicate and repeated if discrepancies in MIC values were observed between replicates.
The minimum inhibitory concentration (MIC) was determined to be the lowest concentration of antibiotic that prevented growth of bacteria both visually and using OD readings. MIC values were collated and used to determine the lowest concentration of each compound effective against 50% and 90% of isolates, known as the MIC50 and MIC90 respectively. These values as well as the range of MIC values were then used for direct comparisons between test compounds and for general comparisons with ampicillin.

[3] = cited from earlier work
[4] = system: methicillin-sensitive and methicillin-resistant strains of Staphylococcus; experiment: Minimum bactericidal concentration determination, Staphylococcus isolates (Example 1); settings: for bactericidal activity (MBC testing): lower concentrations; for strain type for which bactericidal activity was more consistent: methicillin-sensitive versus methicillin-resistant strains
Procedure: Following determination of the MIC using the 96 well MIC plate, a variation of the drop plate method was used to determine minimum bactericidal concentration (MBC) for each of the test compounds. These were analysed using samples taken from the MIC plate following incubation. […] Each concentration was pipetted in duplicate with duplicates being pipetted on an inner ring of drops. The plates were incubated at 37° C. overnight and assessed the following day for growth. The MBC was defined as the concentration at which 99.9% of colonies were eradicated, which was visually assessed by a lack of growth on the agar where the drop was placed.

[5] = system: methicillin sensitive and methicillin-resistant staphylococci; experiment: Minimum inhibitory concentration assay, 42 Staphylococcus isolates (Example 1); format: cell-based
Procedure: Forty-two isolates of Staphylococcus of varying species and strain type were collected from isolate collections. Biochemical testing including coagulase, latex agglutination testing for protein A, Vogues-Proskauer tests and resistance to polymyxin B were used to identify the species of Staphylococcus. All isolates were also screened for resistance to various antimicrobials commonly used for the treatment of skin infections. This was performed using the disk diffusion method and resistance standards as outlined by the CLSI. The following antimicrobials were used: amoxicillin-clavulanic acid (30 μg), cephalothin (30 μg), clindamycin (2 μg), enrofloxacin (5 μg), erythromycin (15 μg), gentamicin (10 μg), imipenem (10 μg), oxacillin (1 μg), penicillin G (10 units), tetracycline (30 μg), 1:19 trimethoprim-sulfamethoxazole (25 μg) and vancomycin (30 μg).
Minimum inhibitory concentration tests were performed according to CLSI Standards (CLSI 2012). 90 μL of one of the test compound solutions, or ampicillin, was added to the end column of a 96 well plate that contained 90 μL of CAMHB in each well. The solutions were then serially diluted across the row, leaving 2 columns for positive and negative controls (FIG. 2). A bacterial suspension was prepared by adding fresh colonies obtained from an overnight culture on Sheep Blood Agar (SBA) to a 9.1 g/L saline solution. This suspension was adjusted to a concentration of between 4×10^8 and 5×10^8 CFU/mL. […] 1 mL of this suspension was added to 9 mL of saline before being added to all wells, excluding the negative control wells, in 10 μL volumes giving a final concentration of between 4×10^5 and 5×10^5 CFU/mL in each well. The tests were then incubated for 24 hours at 37° C. and then assessed both visually and using OD readings from a microplate reader at a wavelength of 600 nm. These tests were performed in duplicate but repeated if discrepancies were observed.
The minimum inhibitory concentration (MIC) was determined to be the lowest concentration of antibiotic that prevented growth of bacteria both visually and using OD readings. Direct statistical comparisons between the test compounds and ampicillin could not be performed in light of confidential information restrictions, such as restrictions on disclosure of information relating to the compound structure, such as molecular weight. Instead, MIC values were collated and used to determine the lowest concentration of each compound that was effective against 50% and 90% of isolates, referred to as the MIC50 and MIC90 respectively. These values as well as the range of MIC values were then used for direct comparisons between test compounds and for general comparisons with ampicillin.

[6] = system: ATCC 49775 reference strain; experiment: Macrodilution time-kill assay (viable counts); settings: 24 hours
Procedure: (§1) Due to the detection limit of the OD measurements, the time-kill assays were also performed in macrodilution. In 15 mL tubes, 9 mL volumes of the test compounds in CAMHB were prepared at one, four and eight times the MIC concentration and 9 mL volumes of ampicillin were prepared in CAMHB at one and four times the MIC. 1 mL of a 4 to 5×10^6 bacterial suspension (as prepared for MIC testing) was added to each of the tubes as well as a growth control tube containing only 9 mL of CAMHB. These tubes were incubated at 37° C. in an orbital shaker rotating at 100 rpm for 24 hours. At 0, 1, 4, 8, 12 and 24 hours after addition of the bacteria, 100 μL samples were removed from each tube and serial diluted in 9.1 g/L saline solution. The dilutions were then plated in duplicate onto plate count agar and incubated for 24 hours at 37° C. After incubation, viable counts were obtained from the number of colonies visible on the agar and these were used to calculate the number of CFU/mL at each time point. For the macrodilution time-kill analysis, only the ATCC 49775 reference strain and MRSA 9 were assessed in order to further investigate the antibacterial activity against methicillin-resistant strains. These macrodilution time-kill assays were independently repeated and bactericidal activity was defined as a ≥3 log decrease in the number of CFU/mL.

MRSA 9 = experiment: Macrodilution time-kill assay (viable counts); settings: 24 hours
Procedure: as §1

[7] = system: ATCC 49775 reference strain; experiment: Microdilution time-kill assay (optical density); settings: 48 hour period; one, four and eight times the MIC
Procedure: Time-kill assays were performed according to the M26-A guidelines of the CLSI, with modifications. The test compounds and ampicillin were serial diluted in CAMHB across the rows of a 96 well plate and a bacterial suspension was prepared and added in the same manner as the MIC testing. The 96 well plates were then incubated at 37° C. for 48 hours being removed at specific time points and OD for the positive control wells as well as one, four and eight times the MIC of the compound specific to the strain being tested were assessed using a spectrophotometer at a wavelength of 600 nm. The time points assessed were 0, 1, 2, 4, 8, 12, 24 and 48 hours after the addition of the bacterial suspension to the wells. Each test compound was tested in triplicate while ampicillin was tested in duplicate and this test was independently repeated. […] One strain from each of the categories of Staphylococcus in the isolate collection (methicillin-sensitive, methicillin resistant and coagulase negative) were selected as well as the ATCC reference strain for comparison. These strains were strains MSS 1, MSS 11, MRSA 9 and the ATCC 49775 reference strain.

Compound: CC[C@@H](C(=O)[C@@H](C)[C@@H](O)[C@H](C)[C@@H]1O[C@@H]([C@@H](CC)C(=O)O)CC[C@@H]1C)[C@H]1O[C@]2(C=C[C@@H](O)[C@]3(CC[C@@](C)([C@H]4CC[C@](O)(CC)[C@H](C)O4)O3)O2)[C@H](C)C[C@@H]1C [LP 1088, Salinomycin]
- daily intake leading to neurotoxic effects (myelin loss, axonal degeneration) [1]: more than 500 μg/kg
- MIC90 ([2]; read-out: MIC90): 2 µg/mL (≈ 2.66 µM)
- toxicity after accidental exposure ([3]; accidental inhalation and swallowing of about 1 mg/kg, human): severe acute and chronic salinomycin toxicity
- acceptable daily intake (ADI) ([3]; humans, European Food Safety Authority risk assessment): 5 µg/kg
- bactericidal activity (MBC testing) [4]: some bactericidal activity in lower concentrations
- strain type for which bactericidal activity was more consistent [4]: more consistently for methicillin-sensitive strains
- MIC50 and MIC90 values compared with ampicillin [5]: considerably lower than ampicillin

Compound: CC[C@@]1([C@@H]2O[C@@H]([C@H]3O[C@@](O)(CO)[C@H](C)C[C@@H]3C)C[C@@H]2C)CC[C@H]([C@]2(C)CC[C@]3(C[C@H](O)[C@@H](C)[C@@H]([C@@H](C)[C@@H](OC)[C@H](C)C(=O)O)O3)O2)O1 [LP 9666, Monensin]
- MIC90 ([2]; read-out: MIC90): 128 µg/mL (≈ 191 µM)
- MIC50 and MIC90 values compared with ampicillin [5]: considerably lower than ampicillin

Compound: CC1(C)S[C@@H]2[C@H](NC(=O)[C@H](N)c3ccccc3)C(=O)N2[C@H]1C(=O)O [ampicillin]
- decrease in the number of viable bacteria ([6]; all concentrations tested): > 3 log10
- decrease in the number of viable bacteria (MRSA 9; all concentrations tested): > 3 log10

Compound: Narasin [LP 4525]
- bactericidal activity (MBC testing) [4]: some bactericidal activity in lower concentrations
- strain type for which bactericidal activity was more consistent [4]: more consistently for methicillin-sensitive strains
- MIC50 and MIC90 values compared with ampicillin [5]: considerably lower than ampicillin

Compound: CO[C@@H]1[C@@H](OC)[C@H](C)[C@@](O)(CC(=O)O)O[C@H]1[C@H](C)[C@H]1O[C@@]2(CC[C@@](C)([C@H]3CC[C@@](C)([C@@H]4O[C@@H]([C@H]5O[C@](C)(O)[C@H](C)C[C@@H]5C)C[C@@H]4O[C@@H]4C[C@H](OC)[C@@H](OC)[C@H](C)O4)O3)O2)C[C@H](O)[C@H]1C [LP 6315, Maduramicin]
- growth (optical density) compared to growth control [7]: prevented the growth
- MIC90 ([2]; read-out: MIC90): 4 µg/mL (≈ 4.36 µM)
- bactericidal or bacteriostatic (time-kill) ([6]; most concentrations, ATCC 49775 and MRSA 9): bacteriostatic
- bactericidal activity (MBC testing) [4]: some bactericidal activity in lower concentrations
- MBC50 rank among test compounds ([4]; methicillin-resistant isolates): lowest MBC50 values
- strain type for which bactericidal activity was more consistent [4]: more consistently for methicillin-sensitive strains
- decrease in colonies (MRSA 9; four times the MIC): > 3 log10
- MIC50 and MIC90 values compared with ampicillin [5]: considerably lower than ampicillin

Compound: CC[C@@H](C(=O)O)[C@@H]1O[C@@H]([C@@H](C)[C@H](O)[C@H](C)C(=O)[C@H](CC)[C@H]2O[C@]3(C=C[C@@H](O)[C@]4(CC[C@@](C)([C@H]5CC[C@](O)(CC)[C@H](C)O5)O4)O3)[C@H](C)C[C@@H]2C)[C@@H](C)C[C@@H]1C [LP 4525, Narasin]
- MIC50 [2]: 0.25 µg/mL (≈ 0.327 µM)
- MIC90 [2]: 1 µg/mL (≈ 1.31 µM)
